Experimental data: patent US8158623B2, “Heptacyclic compounds and the pharmaceutical uses thereof for preventing and treating diabetes and metabolic syndrome” (Shanghai Institute of Materia Medica Chinese Academy of …, priority 2007, dated 2012)
Entries after “also recorded” stand apart in the source; their conditions may differ.

Tests used:
3T3-L1 adipocytes = test: Glucose uptake in 3T3-L1 adipocytes (3H-labelled 2-deoxyglucose); format: cell-based; conditions: for Glucose uptake, Mean, Compound + Insulin Group (Control Group = 1.000): 10 μM, 2 h incubation, with insulin, relative to control without insulin; for fold induction at 10 µM: Mus musculus, 3T3-L1, 2 h incubation, baseline (without insulin), relative to control, read-out: Glucose uptake, Mean, Compound Group (Control Group = 1.000)
Description: The effect of the compounds on baseline or insulin-stimulated glucose uptake was evaluated, using the model of glucose uptake in 3T3-L1 adipocytes.
Adipose tissue is the target of glucose metabolism in vivo. The sensitivity for insulin and availability of glucose in adipose tissues are tightly associated with the insulin resistance. The transportation of glucose into adipocytes is a rate-limiting step for the glucose metabolism, and also an important indicator for evaluating the sensitivity for insulin in adipose tissue. 3T3-L1 is a kind of pre-adipocyte, and can become adipocyte after differentiated completely. Therefore, 3T3-L1 is a desirable model for the glucose transport.
Pre-adipocyte, 3T3-L1 was induced to differentiate under certain conditions. After 3T3-L1 differentiated into adipocytes, the compounds of interest with different concentrations and DMSO (used as control) can be added and incubated with the adipocytes for different periods, then the glucose uptake could be determined. For evaluating the ability for a compound to stimulate glucose uptake, the baseline and insulin-induced glucose uptake were determined, and the increase in baseline and insulin-induced glucose uptake upon treatment of the compounds as compared with control group (with 0.1% DMSO) is calculated, based on the ^3H-labelled 2-deoxyglucose inside the cells.
3T3-L1 cells purchased from Karolinska Institute (Sweden) were cultured in DMEM medium containing 10% fetal calf serum at 37° C., under 5% CO2. The cells were passaged every 3-4 days. The cells were inoculated into 12-well plate. Upon confluence, culture medium containing 0.5 mM 3-isobutyl-1-methylxanthine, 0.25 μM dexamethasone and 5 μg/ml insulin was added and cultured for 3 days. Then, the culture medium was replaced by a medium containing 5 μg/ml insulin and further cultured for 3 days. The insulin was removed, and the cells had differentiated completely into mature adipocytes after 2 days which could be used to determine the glucose uptake.
23 compounds chosen by the inventors were added into the culture medium of adipocytes in a dose of 10 μM. After incubation for 2 h, the effect of the compounds on glucose uptake in 3T3-L1 cells was observed. Culture medium without compounds was used as negative control. The control group only supplemented with insulin and the experiment group supplemented with compounds plus insulin were also employed to observe the effect of the compounds on glucose uptake.

[1] = test system: AMP-Activated Protein Kinase (AMPK); test: Phosphorylation of AMPK in HepG2 cell (Western blot); format: cell-based, Human; conditions: HepG2, 50 uM, 5 minutes, P<0.01 or P<0.05
Description: (§1) Human hepatoma carcinoma cell strain (HepG2, purchased from the cell bank of Shanghai Institute of Cell Biology of Chinese Academy) was used. The Human hepatoma carcinoma cells were passaged by 0.1% pancreatin/0.02% EDTA digestion, and cultured in a incubator at 37° C. using MEM culture medium containing 10% FBS, under 5% CO2/95%.
(§2) HepG2 cells were cultured in 6-well plates for 48 hours until 70%-80% confluence. Serum starvation was started by changing medium with MEM containing 0.5% BSA. After starvation for 6 hours, cells were treated with the compounds (final concentration of 50 uM, containing 0.25% DMSO) for 5 minutes. The culture medium was discarded, and cells were harvested and washed for twice with pre-cooled PBS. The washing liquid was discarded, and any residual PBS was blotted dry. DMSO without heptacyclic compounds was used as control.
(§3) Extraction of total cellular protein: 150 μl/well homogenizing buffer (137 mM NaCl, 2.7 mM KCl, 1 mM MgCl2, 0.5 mM Na3VO4, 1% Triton X-100, 10% Glycerol, 20 mM Tris-HCl pH 7.8, 1 ug/ml Leupeptin, 0.2 mM PMSF, 10 mM NaF, 1 ug/ml Aprotinin, 1 mM EDTA, 1 mM DTT, 5 mM Sodium pyrophosphate, 1 mM Benzamidine) was added. Cells were collected into a 1.5 ml centrifuge tube using cell scraper. Cells were homogenized using sonicator (5 W of power) for 2 times (3 seconds per time), and shaken on a shaker for 1 hour. Supernatant (i.e., total cellular protein) was collected by centrifuging at 14000 rpm for 15 min at 4° C., and stored at −70° C. until use. After the protein concentration was determined by Bradford method, the supernatant was formulated as the loading sample with final concentration of 0.6 mg/ml. The whole preparation process was performed at 4° C.
(§4) Protein Electrophoresis: After being treated at 95° C. for 5 min, the loading sample was loaded (15 μg protein/lane). The protein was separated on 7.5% SDS-acrylamide gel for 1-2 hours under the voltage of 80-120 V.
(§5) Electrotransferring the protein and blocking the membrane: After electrophoresis was finished, the protein was transferred to PVDF membrane using semi-dry transferring slot based on 0.8 mA/cm^2 membrane area under the electric current of 80 mA for 2 hours. After that, the membrane was shaken for 2 hours with 7.5% skim milk/TTBS to block the membrane.
(§6) Antigen-antibody reaction: After the blocking process was finished, the membrane was incubated with primary antibody (antibody against phosphorylated ACC (P-ACC) and antibody against phosphorylated AMPK (P-AMPK), all purchased from Cell signaling (USA), with the working concentration of 1:1000) overnight at 4° C. The membrane was removed, and the primary antibody was recovered. The membrane was washed 5 times, each for 10 min in TTBS. The membrane was shaken for 2 hours with the secondary antibody (horseradish peroxidase-conjugated goat-anti-rabbit IgG antibody, purchased from Bio-rad (USA), with the working concentration of 1:5000) at room temperature. The secondary antibody was discarded. The membrane was washed 5 times, each for 10 min in TTBS in order to remove the unbound secondary antibody.
(§7) ECL exposure and development: Luminescent agents, ECL 1, 2, were mixed homogeneously, and incubated with the membrane for 3-5 min. The membrane was removed, wrapped in preservative film, and transferred into dark room for exposure. After exposure with X-film, the film was developed, washed, recorded and conserved.
(§8) Semi-quantitative analysis was performed through optical density scan using computer image analysis system. Grey level of the protein expression was calculated. The target grey level was divided by the grey level of internal standard, and a histogram was plotted, taking the normal group as 1 unit.

[2] = test system: Acetyl CoA Carboxylase (ACC); test: Phosphorylation of ACC in HepG2 cell (Western blot); format: cell-based, Human; conditions: HepG2, 50 uM, 5 minutes, P<0.01 or P<0.05
Description: as §1, §2, §3, §4, §5, §6, §7, §8

ob/ob mice = test: Fasting blood glucose in ob/ob mice, several heptacyclic compounds, 8 days; format: in vivo
Description: Genetic spontaneous diabetes ob/ob mice were purchased from Jackson (USA), and maintained in a SPF facility (temperature: 22-24° C., humidity: 45-80%, illumination: 150-300 Lx, 12/12-hour light/dark cycle). Fasting blood glucose was determined for 3 days continuously when the mice were 7 weeks old. The mice were grouped into the treatment group and the control group (6 animals per group) according to the results determined. The treatment groups were administered orally with compound E9, G0 and F7 (psoromic acid) (100 mg/kg), and the control group was administered orally with a solution of 0.1% Tween 80 (blank control), once daily for 8 days. Fasting blood glucose in mice was determined at the end of experiment.

[3] = oral 100 mg/kg once daily, after 8 days treatment

| SMILES | Glucose uptake, Mean, Compound + Insulin Group (Control Group = 1.000) (3T3-L1 adipocytes) | fold induction at 10 µM (3T3-L1 adipocytes) | Level of phosphorylation for AMPK protein versus DMSO control [1] | Level of phosphorylation for ACC protein versus DMSO control [2] | Fasting Blood Glucose (ob/ob mice; before administration) [mM] | Fasting blood glucose change in words (ob/ob mice; dosed continuously for 8 days, P<0.05) | Fasting Blood Glucose (ob/ob mice; [3]) [mM] |
| --- | --- | --- | --- | --- | --- | --- | --- |
| CCN(CC)C(=O)c1cc(OC)c(C)c2c1Oc1c(C=O)c(O)cc(C)c1C(=O)O2 [AB5, 4-Formyl-3-hydroxy-8-methoxy-1,9-dimethyl-11-oxo-11H-dibenzo[b,e][1,4]dioxepine-6-carboxylic acid diethylamide] | 1.755 | 1.29 | increased significantly | improved significantly | – | – | – |
| COc1cc(C(=O)NCc2ccccc2)c2c(c1C)OC(=O)c1c(C)cc(O)c(C=NCc3ccccc3)c1O2 [AB6, 4-(Benzylimino-methyl)-3-hydroxy-8-methoxy-1,9-dimethyl-11-oxo-11H-dibenzo[b,e][1,4]dioxepine-6-carboxylic acid benzylamide] | 1.432 | 1.14 | increased significantly | improved significantly | – | – | – |
| CCOC(=O)c1cc(OC)c(C)c2c1Oc1c(C=O)c(O)cc(C)c1C(=O)O2 [Compound A2, 4-Formyl-3-hydroxy-8-methoxy-1,9-dimethyl-11-oxo-11H-dibenzo[b,e][1,4]dioxepine-6-carboxylic acid ethyl ester] | 3.138 | 1.37 | significant up-regulation | improved significantly | – | – | – |
| CCCOC(=O)c1cc(OC)c(C)c2c1Oc1c(C=O)c(O)cc(C)c1C(=O)O2 [Compound A4, 4-Formyl-3-hydroxy-8-methoxy-1,9-dimethyl-11-oxo-11H-dibenzo[b,e][1,4]dioxepine-6-carboxylic acid propyl ester] | 3.449 | 1.18 | significant up-regulation | improved significantly | – | – | – |
| CCCCOC(=O)c1cc(OC)c(C)c2c1Oc1c(C=O)c(O)cc(C)c1C(=O)O2 [Compound A6, 4-Formyl-3-hydroxy-8-methoxy-1,9-dimethyl-11-oxo-11H-dibenzo[b,e][1,4]dioxepine-6-carboxylic acid butyl ester] | – | – | significant up-regulation | improved significantly | – | – | – |
| COc1cc(C(=O)O)c2c(c1C)OC(=O)c1c(C)cc(O)c(CNc3ccccc3)c1O2 [Compound B9, 3-Hydroxy-8-methoxy-1,9-dimethyl-11-oxo-4-phenylaminomethyl-11H-dibenzo[b,e][1,4]dioxepine-6-carboxylic acid] | 2.824 | 1.16 | increased significantly | improved significantly | – | – | – |
| COc1cc(C(=O)O)c2c(c1C)OC(=O)c1c(C)cc(O)c(CNCCn3cccc3)c1O2 [Compound C1, 3-Hydroxy-8-methoxy-1,9-dimethyl-11-oxo-4-[(2-pyrrol-1-yl-ethylamino)-methyl]-11H-dibenzo[b,e][1,4]dioxepine-6-carboxylic acid] | 4.059 | 1.21 | increased significantly | improved significantly | – | – | – |
| COc1cc(C(=O)O)c2c(c1C)OC(=O)c1c(C)cc(O)c(CNCCN3CCOCC3)c1O2 [Compound C7, 3-Hydroxy-8-methoxy-1,9-dimethyl-4-[(2-morpholin-4-yl-ethylamino)-methyl]-11-oxo-11H-dibenzo[b,e][1,4]dioxepine-6-carboxylic acid] | 3.610 | 1.22 | increased significantly | improved significantly | – | – | – |
| COc1cc(C(=O)O)c2c(c1C)OC(=O)c1c(C)cc(O)c(CO)c1O2 [Compound E9, 3-Hydroxy-4-hydroxymethyl-8-methoxy-1,9-dimethyl-11-oxo-11H-dibenzo[b,e][1,4]dioxepine-6-carboxylic acid] | 2.965 | 1.1 | significant up-regulation; also recorded: increased significantly | improved significantly | 11.99 ± 1.48 | reduced statistically significant | 8.68 ± 1.32 |
| CN(C)C(=N)N=C(N)N [Metformin, reference compound] | – | – | – | – | 12.27 ± 2.69 | – | 8.13 ± 2.76 |
